Values of other authors in patent publication US5238927A (priority 1992, dated 1993).

Conditions: in vivo

In the case of NC(=O)c1cc[n+](COC[n+]2ccccc2C=NO)cc1 [HI-6, 1-(2-hydroxyiminomethylpyridinium)-2-(4-carboxyamidopyridinium)-dimethyl ether dichloride], the “effectiveness as antidote in the treatment of organophosphorus toxin nerve poisoning” value is given as “most effective known antidote”.
